# Reference: publication PMC4461206 (Acta Crystallographica Section D: Biological Crystallography, 2015)
# Substitutions are numbered along the chain they refer to.
# B1: 3-Sulfinopropionyl-coenzyme A (3SP-CoA) desulfinase from Advenella mimigardefordensis DPN7T (enzyme)
# chain: MYELTPEQRTLQTQARELAQSVFASTAVQTDLTEQYPWDNVAQLRDAGFMGMMLPTSVGGRGLSTLDTVIVIEEMAKACATMGRITVDSNLGAIGAITKYGSEEQIKLAADLVLAGDKPAICISEPNAGSAASEMTTRADKNGDHYILNGEKYWITGGGVSKLHLIFARVFDDGVEQGIGAFITVLDDHGPEGLKVGRRLYAMGVRGIPETHLEFHDLKIHKSMMITFPDGLKRGFAALMSAYNAQRVGAGAVALGIAQCAFEEGVAYLKRREQFGRPLAEFQGLQWMVADMSVQLEAARLMLRSAAVSGETFPDINKAAQAKIFAAETANKVTNDALQFFGSSGYGRHNPMERHVRDARMFTIAGGTAQILRTQVASKILDMKLPQTRDGYLKAAQNSKR
# B2: Acd_(DPN7_R84K) (enzyme)
# chain: B1 chain with R84K
# Legend:
# [1] = molecular target: T1, AcdDPN7 (3-sulfinopropionyl-coenzyme A desulfinase) (Advenella mimigardefordensis, UniProt K4L7X3); experiment: DTNB sulfite-release assay, […] nm; assay type: biochemical; settings: 50 mM Tris-HCl pH 7.4, 30 C, 0.2 mM DTNB, 0.1 mM 3SP-CoA, with or without O2
# T1 construct: gene acd; His6-tagged, pET-23a::acdDPN7, E. coli BL21(DE3) pLysS; homotetramer 150-200 kDa, one FAD per subunit; residues 2-392 superimposed in the structure
# [2] = molecular target: T1, AcdDPN7 (3-sulfinopropionyl-coenzyme A desulfinase); experiment: X-ray crystal structure, […] A; assay type: binding; settings: co-crystallized and soaked with succinyl-CoA, which was hydrolysed; only CoA seen in the active site (monomers A, B, D, E, F), occupancy 0.43-0.59; pH 6.5
# [3] = molecular target: T1, AcdDPN7 (3-sulfinopropionyl-coenzyme A desulfinase); experiment: X-ray crystal structure, […] A; assay type: binding; settings: noncovalent, one per subunit, site shared by two monomers; pH 6.5
# [4] = molecular target: the molecule itself; experiment: crystal structure; apo enzyme at 1.89 Å (two monomers in the asymmetric unit) and complex with CoA at 2.30 Å (six monomers, three dimers); 0.1 M Bis-tris pH 6.5, PEG 3350; 100 K
# [5] = molecular target: the molecule itself; experiment: SEC; wild-type Acd_(DPN7) and Acd_(DPN7_R84K) run side by side; conditions not told for this run
molecule,measurement,setting,value
CC(C)(COP(=O)(O)OP(=O)(O)OC[C@H]1O[C@@H](n2cnc3c(N)ncnc32)[C@H](O)[C@@H]1OP(=O)(O)O)[C@@H](O)C(=O)NCCC(=O)NCCSC(=O)CCS(=O)O [3SP-CoA],"DTNB sulfite-release assay, 412 nm",[1],AcdDPN7 showed no significant difference in reaction velocity in the presence or absence of O2
CC(C)(COP(=O)(O)OP(=O)(O)OC[C@H]1O[C@@H](n2cnc3c(N)ncnc32)[C@H](O)[C@@H]1OP(=O)(O)O)[C@@H](O)C(=O)NCCC(=O)NCCS [CoA],"X-ray crystal structure, 2.30 A",[2],"In the active sites of AcdDPN7 monomers A, B, D, E and F only the CoA group"
Cc1cc2nc3c(=O)[nH]c(=O)nc-3n(C[C@H](O)[C@H](O)[C@H](O)COP(=O)(O)OP(=O)(O)OC[C@H]3O[C@@H](n4cnc5c(N)ncnc54)[C@H](O)[C@@H]3O)c2cc1C [FAD],"X-ray crystal structure, 1.89 A",[3],AcdDPN7 is a tetramer and each monomer has one FAD noncovalently bound to the polypeptide
B1,stoichiometry N,[4],4
B2,stoichiometry N,[5],4
